ChEMBL document CHEMBL1201862, “PubChem BioAssay data set” (2004)
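Briefly, cells in 96-well plates were exposed to five compound concentrations for 48 h, and endpoints were estimated by linear interpolation. GI50 is the concentration that inhibits growth by half.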 Active and inactive are the calls of the source. Cut-off read from the data, not from the text of the source: active = GI50 up to about 1.1 µM and inactive = higher.

Experiments:
Test in all cases: growth of human tumour cells (NCI), 48 h
CCRF-CEM = system: CCRF-CEM
Hs-578T = system: Hs-578T
NCI-H522 = system: NCI-H522
DU-145 = system: DU-145
RXF 393 = system: RXF 393
SK-MEL-28 = system: SK-MEL-28
SNB-75 = system: SNB-75
HCT-15 = system: HCT-15
IGROV-1 = system: IGROV-1
HOP-92 = system: HOP-92
SN12C = system: SN12C
LOX IMVI = system: LOX IMVI
NCI-H23 = system: NCI-H23
SK-OV-3 = system: SK-OV-3
SF-268 = system: SF-268
CAKI-1 = system: CAKI-1
SW-620 = system: SW-620
SK-MEL-2 = system: SK-MEL-2
UO-31 = system: UO-31

Compound | GI50 (CCRF-CEM) | GI50 (Hs-578T) | GI50 (NCI-H522) | GI50 (DU-145) | GI50 (RXF 393) | GI50 (SK-MEL-28) | GI50 (SNB-75) | GI50 (HCT-15) | GI50 (IGROV-1) | GI50 (HOP-92) | GI50 (SN12C) | GI50 (LOX IMVI) | GI50 (NCI-H23) | GI50 (SK-OV-3) | GI50 (SF-268) | GI50 (CAKI-1) | GI50 (SW-620) | GI50 (SK-MEL-2) | GI50 (UO-31)
OC(C1CCCC1=N/N=C1/CCCC1C(O)(C(F)(F)Cl)C(F)(F)Cl)(C(F)(F)Cl)C(F)(F)Cl (centres undefined) | > 10 µM (inactive) | > 10 µM (inactive) | > 10 µM (inactive) | > 10 µM (inactive) | > 10 µM (inactive) | > 10 µM (inactive) | > 10 µM (inactive) | > 10 µM | > 10 µM (inactive) | > 10 µM (inactive) | > 10 µM (inactive) | > 10 µM (inactive) | > 10 µM (inactive) | > 10 µM (inactive) | > 10 µM (inactive) | > 10 µM (inactive) | > 10 µM (inactive) | > 10 µM (inactive) | –
S=C(NC/C(Br)=C/Br)Nc1cccc2ccccc12 | 18.3 µM (inactive) | > 100 µM (inactive) | 20 µM (inactive) | 30.9 µM (inactive) | 31.3 µM (inactive) | – | 33.5 µM (inactive) | 31.3 µM | 29.3 µM (inactive) | 20.2 µM (inactive) | 24.4 µM (inactive) | 24.8 µM (inactive) | 23.5 µM (inactive) | 37.5 µM (inactive) | – | 29.2 µM (inactive) | – | 20.4 µM (inactive) | 20.9 µM (inactive)
COC(=O)C1(Cc2ccc3c(c2)CCC3)Cc2ccc3c(c2C1O)CCC3 (centres undefined) | > 100 µM (inactive) | 17.3 µM (inactive) | 10.9 µM (inactive) | 11.8 µM (inactive) | 14.5 µM (inactive) | 14.7 µM (inactive) | 32.2 µM (inactive) | > 10 µM | > 10 µM (inactive) | 10.1 µM (inactive) | 15 µM (inactive) | 12.6 µM (inactive) | > 10 µM (inactive) | 18.5 µM (inactive) | 21 µM (inactive) | 14.2 µM (inactive) | 14.5 µM (inactive) | – | 10.7 µM (inactive)
COC(=O)[C@]1(c2cc3ccccc3n2S(=O)(=O)c2ccccc2)CC2CN(C(C)=O)C1CC2=O (some centres undefined) | 0.637 µM (active) | 5.94 µM (inactive) | 1.75 µM (inactive) | 3.46 µM (inactive) | 1.77 µM (inactive) | 3.94 µM (inactive) | 3.15 µM (inactive) | 2.48 µM | 2.57 µM (inactive) | 5.52 µM (inactive) | 2.68 µM (inactive) | 1.9 µM (inactive) | 3.1 µM (inactive) | 8.13 µM (inactive) | 2.34 µM (inactive) | 2.68 µM (inactive) | 1.94 µM (inactive) | 2.77 µM (inactive) | 1.82 µM (inactive)
COC(=O)Nc1nc2cc(S(=O)(=O)Nc3ccccn3)ccc2[nH]1 | 26.1 µM (inactive) | 35.6 µM (inactive) | 45.2 µM (inactive) | 71.1 µM (inactive) | 39.6 µM (inactive) | 14.4 µM (inactive) | 22.6 µM (inactive) | 19.8 µM | 27.9 µM (inactive) | 30.5 µM (inactive) | 92 µM (inactive) | 51.8 µM (inactive) | 50.1 µM (inactive) | 44.5 µM (inactive) | 72.6 µM (inactive) | 47 µM (inactive) | 17.1 µM (inactive) | > 100 µM (inactive) | 76 µM (inactive)
CC1=NN(c2ccc(S(=O)(=O)O)cc2)C2(C1)C(Cl)C(=O)N2c1nc2ccccc2s1 (centres undefined) | > 100 µM (inactive) | > 100 µM (inactive) | > 100 µM (inactive) | > 100 µM (inactive) | > 100 µM (inactive) | > 100 µM (inactive) | > 100 µM (inactive) | > 100 µM | > 100 µM (inactive) | > 100 µM (inactive) | > 100 µM (inactive) | 57.8 µM (inactive) | > 100 µM (inactive) | > 100 µM (inactive) | > 100 µM (inactive) | > 100 µM (inactive) | > 100 µM (inactive) | 92.5 µM (inactive) | > 100 µM (inactive)
OC1CCCN(C2(c3cccs3)CCCCC2)C1 (centres undefined) | – | > 100 µM (inactive) | > 100 µM (inactive) | > 100 µM (inactive) | > 100 µM (inactive) | > 100 µM (inactive) | > 100 µM (inactive) | > 100 µM | 97.5 µM (inactive) | > 100 µM (inactive) | > 100 µM (inactive) | > 100 µM (inactive) | > 100 µM (inactive) | > 100 µM (inactive) | > 100 µM (inactive) | > 100 µM (inactive) | > 100 µM (inactive) | > 100 µM (inactive) | –
Oc1[nH]c(NCc2ccc(Cl)cc2)nc2ncnc1-2 | > 100 µM (inactive) | 44.8 µM (inactive) | 30.3 µM (inactive) | > 100 µM (inactive) | > 100 µM (inactive) | – | > 100 µM (inactive) | > 100 µM | > 100 µM (inactive) | > 100 µM (inactive) | > 100 µM (inactive) | > 100 µM (inactive) | > 100 µM (inactive) | > 100 µM (inactive) | > 100 µM (inactive) | > 100 µM (inactive) | > 100 µM (inactive) | > 100 µM (inactive) | > 100 µM (inactive)
